Data on three molecules can be found in article PMC10282093, “Structural basis of α1A-adrenergic receptor activation and recognition by an extracellular nanobody” (Nature Communications, 2023).

Values joined by “and” are separate entries in the source; they are usually repeats but may differ in a detail not shown here. Identical values can stand only once. Like-named read-outs stand apart in the source and are kept apart here.

Test [1] deals with HEK293T cells (mock). Briefly: Glo-sensor cAMP assay, mock (negative control). Format: cell-based.
Method: In brief, […] plasmid, receptor plasmid, and Gsq plasmid were transfected into HEK293T cells. At 24 h after transfection, the cells were switched into a CO2-Independent Medium (Gibco) and incubated with GloSensor^TM cAMP reagent. The mixture was then transferred to a 96-well white plate. The 96-well plate is placed at 37 °C in the dark for 1 h, then placed at room temperature in the dark for 1 h before use. […] The result curves were calculated and fitted by GraphPad Prism 9.
Test [2] addresses T1, α1AAR (Homo sapiens, UniProt P35348).
T1 sequence (P35348 1-466): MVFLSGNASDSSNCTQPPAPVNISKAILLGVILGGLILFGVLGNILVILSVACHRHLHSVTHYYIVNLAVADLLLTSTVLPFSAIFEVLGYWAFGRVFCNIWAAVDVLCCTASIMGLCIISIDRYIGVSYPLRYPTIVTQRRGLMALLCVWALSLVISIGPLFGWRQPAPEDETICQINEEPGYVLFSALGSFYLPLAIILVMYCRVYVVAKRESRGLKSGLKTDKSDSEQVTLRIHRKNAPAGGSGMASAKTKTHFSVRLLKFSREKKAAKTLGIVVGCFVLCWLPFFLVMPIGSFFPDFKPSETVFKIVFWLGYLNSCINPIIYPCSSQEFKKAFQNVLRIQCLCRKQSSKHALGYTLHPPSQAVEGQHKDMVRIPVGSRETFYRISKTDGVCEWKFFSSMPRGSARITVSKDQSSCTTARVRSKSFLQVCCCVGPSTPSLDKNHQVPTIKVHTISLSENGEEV
Kind of test: Glo-sensor cAMP signaling assay with engineered Gsq protein in HEK293T cells. Particulars: HEK-293T.
Method: In brief, pGloSensor™−22F plasmid, receptor plasmid, and Gsq plasmid were transfected into HEK293T cells. At 24 h after transfection, the cells were switched into a CO2-Independent Medium (Gibco) and incubated with GloSensor^TM cAMP reagent. The mixture was then transferred to a 96-well white plate. The 96-well plate is placed at 37 °C in the dark for 1 h, then placed at room temperature in the dark for 1 h before use. […] The result curves were calculated and fitted by GraphPad Prism 9.

In test [3] the target is T2, α1AAR (Homo sapiens, UniProt P35348).
T2 sequence (P35348 1-370): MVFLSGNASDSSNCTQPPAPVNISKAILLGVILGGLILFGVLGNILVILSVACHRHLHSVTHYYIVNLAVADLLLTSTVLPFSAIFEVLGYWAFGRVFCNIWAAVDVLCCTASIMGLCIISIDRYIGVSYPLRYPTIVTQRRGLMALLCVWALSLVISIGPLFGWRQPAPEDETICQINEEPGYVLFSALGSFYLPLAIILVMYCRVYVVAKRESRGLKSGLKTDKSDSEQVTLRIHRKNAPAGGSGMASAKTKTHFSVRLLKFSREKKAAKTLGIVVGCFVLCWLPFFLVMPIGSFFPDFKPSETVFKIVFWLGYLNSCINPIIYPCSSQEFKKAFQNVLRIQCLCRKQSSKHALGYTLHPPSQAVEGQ
Briefly: [3H]prazosin radioligand binding, Sf9 membranes. Particulars: for [3H]prazosin binding: SupFig 5b, listed as Tam.
Method: After centrifugation, the pellet was homogenized in binding buffer and used as the membrane fraction in binding assays. […] Receptors were incubated for 1 h at room temperature with various concentrations of ligand in a total volume of 100 µl. After the reaction, the mixture was trapped on Whatman GF/B glass filters. Bound and free radioligands were separated by washing with ice-cold binding buffer. Radioactivity was measured on a MicroBeta2 liquid scintillation counter (PerkinElmer).

Take `NC[C@H](O)c1ccc(O)c(O)c1` [Noradrenaline, noradrenaline]: the “cAMP Glo-sensor signal (Noradrenaline %)” value is 41.093% and 40.8624% and 40.5271% in test [1] (NA Log[M] -4, listed as NA); 20.1779% and 21.0064% and 19.7646% in test [1] (NA Log[M] -5, listed as NA); 7.941% and 8.285% and 8.539% in test [1] (NA Log[M] -6, listed as NA); 6.318% and 5.663% and 5.337% in test [1] (NA Log[M] -7, listed as NA); 5.486% and 4.494% and 5.028% in test [1] (NA Log[M] -8, listed as NA); 5.1702% and 5.365% and 5.344% in test [1] (NA Log[M] -9, listed as NA). In addition, the “cAMP Glo-sensor signal (Noradrenaline %)” value in test [1] (NA Log[M] -10, listed as NA) is 5.58% and 5.603% and 5.064%; in test [1] (NA Log[M] -11, listed as NA), 6.233% and 5.97% and 5.757%. Moreover, the activation at 0.01 µM in test [2] (5 min, read-out: α1AAR activation (Noradrenaline %), 10 nM NA, 5 min) stood at 27.1%; in test [2] (5.5 min, read-out: α1AAR activation (Noradrenaline %), 10 nM NA, […]) it was 32.4%; in test [2] (0.1 h, read-out: α1AAR activation (Noradrenaline %), 10 nM NA, 6 min), 36.3%; in test [2] (6.5 min, read-out: α1AAR activation (Noradrenaline %), 10 nM NA, […]), 40.4%; in test [2] (7 min, read-out: α1AAR activation (Noradrenaline %), 10 nM NA, 7 min) it was 44.7%; in test [2] (0.125 h, read-out: α1AAR activation (Noradrenaline %), 10 nM NA, 7.5 min), 51.2%. In addition, the activation at 0.01 µM in test [2] (8 min, read-out: α1AAR activation (Noradrenaline %), 10 nM NA, 8 min) turned out to be 54.9%; in test [2] (8.5 min, read-out: α1AAR activation (Noradrenaline %), 10 nM NA, 8.5 min) it was 60.5%; in test [2] (0.175 h, read-out: α1AAR activation (Noradrenaline %), 10 nM NA, 10.5 min), 78.1%; in test [2] (11 min, read-out: α1AAR activation (Noradrenaline %), 10 nM NA, 11 min), 83.6%; in test [2] (11.5 min, read-out: α1AAR activation (Noradrenaline %), 10 nM NA, […]) it was 88.1%; in test [2] (0.2 h, read-out: α1AAR activation (Noradrenaline %), 10 nM NA, 12 min) it was 90.9%. Also, the activation at 0.01 µM was found to be 92.5% in test [2] (12.5 min, read-out: α1AAR activation (Noradrenaline %), 10 nM NA, 12.5 min); 95.2% in test [2] (13 min, read-out: α1AAR activation (Noradrenaline %), 10 nM NA, 13 min); 98.2% in test [2] (0.225 h, read-out: α1AAR activation (Noradrenaline %), 10 nM NA, 13.5 min); 99.3% in test [2] (14 min, read-out: α1AAR activation (Noradrenaline %), 10 nM NA, 14 min); 99.1% in test [2] (14.5 min, read-out: α1AAR activation (Noradrenaline %), 10 nM NA, […]); 102% in test [2] (0.25 h, read-out: α1AAR activation (Noradrenaline %), 10 nM NA, 15 min). Besides, the activation at 0.01 µM turned out to be 102% in test [2] (15.5 min, read-out: α1AAR activation (Noradrenaline %), 10 nM NA, 15.5 min); 101% in test [2] (16 min, read-out: α1AAR activation (Noradrenaline %), 10 nM NA, 16 min); 99.9% in test [2] (17 min, read-out: α1AAR activation (Noradrenaline %), 10 nM NA, 17 min); 99.3% in test [2] (17.5 min, read-out: α1AAR activation (Noradrenaline %), 10 nM NA, 17.5 min); 99.3% in test [2] (0.3 h, read-out: α1AAR activation (Noradrenaline %), 10 nM NA, 18 min); 99% in test [2] (18.5 min, read-out: α1AAR activation (Noradrenaline %), 10 nM NA, 18.5 min). For the same molecule, the activation at 0.01 µM in test [2] (19 min, read-out: α1AAR activation (Noradrenaline %), 10 nM NA, 19 min) is 96.4%; in test [2] (0.325 h, read-out: α1AAR activation (Noradrenaline %), 10 nM NA, 19.5 min) it was 97.2%; in test [2] (20 min, read-out: α1AAR activation (Noradrenaline %), 10 nM NA, 20 min), 96%; in test [2] ([…], read-out: α1AAR activation (Noradrenaline %), 10 nM NA, 9 min) it was 64.4%; in test [2] ([…], read-out: α1AAR activation (Noradrenaline %), 10 nM NA, 16.5 min), 100%; in test [2] (read-out: α1AAR activation (Noradrenaline %), NA Log[M] -8), 45.2%. Moreover, the activation at 100 µM in test [2] (read-out: α1AAR activation (Noradrenaline %), NA Log[M] -4) was found to be 86.3%. Moreover, the activation at 1 µM in test [2] (read-out: α1AAR activation (Noradrenaline %), NA Log[M] -6) is 105%. For the same molecule, the activation at 0.1 µM in test [2] (read-out: α1AAR activation (Noradrenaline %), NA Log[M] -7) was 82.8%.
As for `CCOc1ccccc1OCCN[C@H](C)Cc1ccc(OC)c(S(N)(=O)=O)c1` [Tamsulosin, tamsulosin], the “[3H]prazosin binding” value in test [3] (Tam Log[M] -4) was 3.325% and 3.807% and 3.682%; in test [3] (Tam Log[M] -5), 5.496% and 6.839% and 6.881%; in test [3] (Tam Log[M] -6), 11.244% and 11.6216% and 10.1426%; in test [3] (Tam Log[M] -7), 16.0268% and 19.0266% and 22.7187%; in test [3] (Tam Log[M] -8), 68.1875% and 65.3346% and 66.6562%; in test [3] (Tam Log[M] -9), 89.8993% and 114.569% and 102.297%. Further, the “[3H]prazosin binding” value is 91.4097% and 102.161% and 96.6541% in test [3] (Tam Log[M] -10); 80.1028% and 92.7732% and 127.271% in test [3] (Tam Log[M] -11).

B1: Nb6: nanobody that engages the ICL3 of the inactive-state κ-opioid receptor (antibody, V domains shown)
VH: QVQLQESGGGLVQAGESLRLSCAASGTIFRLYDMGWYRRVSGNQRELVASITSGGSTKYGDSVKGRFTISRDNAKNTVYLQMSSLKPEDTAVYYCNAEYRTGIWEELLDGWGQGTQVTVSS
In the case of B1, the “Normalized [3H]prazosin-binding” value in test [3] (with 5 μM Nb6) was 88.7285% and 103.574% and 107.698%.
